Data: patent US20230123334A1, “AMINO LIPID COMPOUND, PREPARATION METHOD THEREFOR, AND APPLICATION THEREOF” (SHENZHEN SHENXIN BIOTECHNOLOGY CO., LTD., priority 2020, published 2023)

Test system: HEK293 cells
Assay: Preliminary screening as mRNA vectors, EGFP mRNA transfection of HEK293 cells
Assay type: cell-based
Conditions: EGFP mRNA 50 ng per well, 96-well plates; percentage of GFP fluorescent cells relative to total number of cells (Hoechst)
Procedure, shortened: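 Screening format: EGFP mRNA transfection (50 ng/well) into HEK293 in 10% FBS-supplemented DMEM. Percent green fluorescent cells, normalised to Hoechst nuclear count, gave the value; Lipofectamine2000 was the reference transfectant.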

CCCCCCCCCCCCCCCCCCSc1nc(NCCCCCCCCCCCCC)nc(NCCN2CCN(C)CC2)n1 [Compound D5S18N13]
Absolute mRNA transfection efficiency in HEK293 cells: 1.4%

CCCCCCCCCNc1nc(NCCN(C)C)nc(SCCCCCCC)n1 [Compound D1S7N9]
Absolute mRNA transfection efficiency in HEK293 cells: 10.0%

CCCCCCCCCCCCCNc1nc(NCCN(CC)CC)nc(SCCCCCCCCCCC)n1 [Compound D7S11N13]
Absolute mRNA transfection efficiency in HEK293 cells: 5.8%

CCCCCCCCCCCCN(CCCCCCCCCCCC)c1nc(NCCN2CCCC2)nc(SCCCCCCC)n1 [D3S7^2N12]
Absolute mRNA transfection efficiency in HEK293 cells: 0.4%

CCCCCCCCCCCCCCCSc1nc(NCCCCCCCCC)nc(NCCN2CCCCC2)n1 [Compound D4S15N9]
Absolute mRNA transfection efficiency in HEK293 cells: 1.8%

CCCCCCCCCCCCSc1nc(NCCCCCCCC)nc(NCCN2CCCC2)n1 [Compound D3S12N8]
Absolute mRNA transfection efficiency in HEK293 cells: 12.3%

CCCCCCCCCCCCCCCNc1nc(NCCN2CCOCC2)nc(SCCCCCC)n1 [Compound D2S6N15]
Absolute mRNA transfection efficiency in HEK293 cells: 1.2%

CCCCCCCCCCCSc1nc(NCCN2CCCC2)nc(SCCCCCC)n1 [Compound D3S6S11]
Absolute mRNA transfection efficiency in HEK293 cells: 0.7%

CCCCCCCCCCCCNc1nc(NCCN2CCCC2)nc(SCCCCCCCCCCCC)n1 [Compound D3S12N12]
Absolute mRNA transfection efficiency in HEK293 cells: 10.8%

CCCCCCCCCCCCCCCCCCSc1nc(NCCCN(C)C)nc(SCCCCCCC)n1 [Compound D6S7S18]
Absolute mRNA transfection efficiency in HEK293 cells: 22.0%

CCCCCCCCCCCCCCCCSc1nc(NCCCCCCCCCCC)nc(NCCN2CCOCC2)n1 [Compound D2S16N11]
Absolute mRNA transfection efficiency in HEK293 cells: 4.1%

CCCCCCCCCCCCCCCNc1nc(NCCCN2CCN(C)CC2)nc(SCCCCCCCCCCC)n1 [Compound D9S11N15]
Absolute mRNA transfection efficiency in HEK293 cells: 15.7%

CCCCCCCCCCCCCNc1nc(NCCN2CCOCC2)nc(SCCCCCCCCCCC)n1 [Compound D2S11N13]
Absolute mRNA transfection efficiency in HEK293 cells: 1.9%

CCCCCCCCCNc1nc(NCC2CCN(C)CC2)nc(SCCCCCC)n1 [Compound D10S6N9]
Absolute mRNA transfection efficiency in HEK293 cells: 1.2%

CCCCCCCCCCCCCCCCCCSc1nc(NCCCCCC)nc(NCCN2CCOCC2)n1 [Compound D2S18N6]
Absolute mRNA transfection efficiency in HEK293 cells: 0.4%

CCCCCCCCCCCCSc1nc(NCCN2CCCCC2)nc(SCCCCCCCC)n1 [Compound D4S8S12]
Absolute mRNA transfection efficiency in HEK293 cells: 1.0%

CCCCCCCCCCCCCCSc1nc(NCCCCCCCCCCCCC)nc(NCCCN2CCN(C)CC2)n1 [Compound D9S14N13]
Absolute mRNA transfection efficiency in HEK293 cells: 4.8%

CCCCCCCCSc1nc(NCCCCCC)nc(NCCN(CC)CC)n1 [Compound D7S8N6]
Absolute mRNA transfection efficiency in HEK293 cells: 0.8%

CCCCCCCCCCCCCCCCNc1nc(NCCN2CCCC2)nc(SCCCCCC)n1 [Compound D3S6N16]
Absolute mRNA transfection efficiency in HEK293 cells: 37.3%

CCCCCCCCCCCCCNc1nc(NCCCN(C)C)nc(SCCCCCCCCC)n1 [Compound D6S9N13]
Absolute mRNA transfection efficiency in HEK293 cells: 70.9%

CCCCCCCCCCCCN(CCCCCCCCCCCC)c1nc(NCCCN(C)C)nc(SCCCCCCCC)n1 [D6S8^2N12]
Absolute mRNA transfection efficiency in HEK293 cells: 1.5%

CCCCCCCCCCCCCCCSc1nc(NCCCCCCCCCCCC)nc(NCCN(C)C)n1 [Compound D1S15N12]
Absolute mRNA transfection efficiency in HEK293 cells: 4.8%

CCCCCCCNc1nc(NCCCN(C)C)nc(SCCCCCC)n1 [Compound D6S6N7]
Absolute mRNA transfection efficiency in HEK293 cells: 0.2%

CCCCCCCCCCSc1nc(NCCCCCCC)nc(NCCN2CCCC2)n1 [Compound D3S10N7]
Absolute mRNA transfection efficiency in HEK293 cells: 1.4%

CCCCCCCCCCCCCCSc1nc(NCCCCCCCCCCCCC)nc(NCCN2CCCC2)n1 [Compound D3S14N13]
Absolute mRNA transfection efficiency in HEK293 cells: 25.9%

CCCCCCCCCCCCCCCSc1nc(NCCN2CCCCC2)nc(SCCCCCCC)n1 [Compound D4S7S15]
Absolute mRNA transfection efficiency in HEK293 cells: 6.7%

CCCCCCCCCCCCCCCNc1nc(NCCCN2CCN(C)CC2)nc(SCCCCCCCCCCCC)n1 [Compound D9S12N15]
Absolute mRNA transfection efficiency in HEK293 cells: 0.0%
